{
  "source": "PubChem BioAssay (NCI)",
  "assay_in_all_cases": "growth of human tumour cells (NCI), 48 h",
  "key": {"786-0 renal": {"system": "786-0 renal"}, "A498 renal": {"system": "A498 renal"}, "A549 NSCLC": {"system": "A549 NSCLC"}, "ACHN renal": {"system": "ACHN renal"}, "BT-549 breast": {"system": "BT-549 breast"}, "CAKI-1 renal": {"system": "CAKI-1 renal"}, "CCRF-CEM leukemia": {"system": "CCRF-CEM leukemia"}, "COLO 205 colon": {"system": "COLO 205 colon"}, "DU-145 prostate": {"system": "DU-145 prostate"}, "EKVX NSCLC": {"system": "EKVX NSCLC"}, "HCT-116 colon": {"system": "HCT-116 colon"}, "HCT-15 colon": {"system": "HCT-15 colon"}, "HL-60(TB) leukemia": {"system": "HL-60(TB) leukemia"}, "HOP-62 NSCLC": {"system": "HOP-62 NSCLC"}, "HOP-92 NSCLC": {"system": "HOP-92 NSCLC"}, "HS 578T breast": {"system": "HS 578T breast"}, "HT29 colon": {"system": "HT29 colon"}, "IGROV1 ovarian": {"system": "IGROV1 ovarian"}, "K-562 leukemia": {"system": "K-562 leukemia"}, "KM12 colon": {"system": "KM12 colon"}, "LOX IMVI melanoma": {"system": "LOX IMVI melanoma"}, "M14 melanoma": {"system": "M14 melanoma"}, "MALME-3M melanoma": {"system": "MALME-3M melanoma"}, "MCF7 breast": {"system": "MCF7 breast"}, "MDA-MB-231 breast": {"system": "MDA-MB-231 breast"}, "MDA-MB-435": {"system": "MDA-MB-435"}, "MDA-N": {"system": "MDA-N"}, "MOLT-4 leukemia": {"system": "MOLT-4 leukemia"}, "NCI-H226 lung": {"system": "NCI-H226 lung"}, "NCI-H23 lung": {"system": "NCI-H23 lung"}, "NCI-H460 lung": {"system": "NCI-H460 lung"}, "NCI-H522 lung": {"system": "NCI-H522 lung"}, "NCI/ADR-RES ovarian": {"system": "NCI/ADR-RES ovarian"}, "OVCAR-3 ovarian": {"system": "OVCAR-3 ovarian"}, "OVCAR-4 ovarian": {"system": "OVCAR-4 ovarian"}, "OVCAR-5 ovarian": {"system": "OVCAR-5 ovarian"}, "OVCAR-8 ovarian": {"system": "OVCAR-8 ovarian"}, "PC-3 prostate": {"system": "PC-3 prostate"}, "RPMI-8226 leukemia": {"system": "RPMI-8226 leukemia"}, "RXF 393 renal": {"system": "RXF 393 renal"}, "SF-268 CNS": {"system": "SF-268 CNS"}, "SF-295 CNS": {"system": "SF-295 CNS"}, "SF-539 CNS": {"system": "SF-539 CNS"}, "SK-MEL-2 melanoma": {"system": "SK-MEL-2 melanoma"}, "SK-MEL-28 melanoma": {"system": "SK-MEL-28 melanoma"}, "SK-MEL-5 melanoma": {"system": "SK-MEL-5 melanoma"}, "SK-OV-3 ovarian": {"system": "SK-OV-3 ovarian"}, "SN12C renal": {"system": "SN12C renal"}, "SNB-19 CNS": {"system": "SNB-19 CNS"}, "SNB-75 CNS": {"system": "SNB-75 CNS"}, "SR leukemia": {"system": "SR leukemia"}, "SW-620 colon": {"system": "SW-620 colon"}, "T-47D breast": {"system": "T-47D breast"}, "TK-10 renal": {"system": "TK-10 renal"}, "U251 CNS": {"system": "U251 CNS"}, "UACC-257 melanoma": {"system": "UACC-257 melanoma"}, "UACC-62 melanoma": {"system": "UACC-62 melanoma"}, "UO-31 renal": {"system": "UO-31 renal"}},
  "note": "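Tested at 5 concentrations; 48 h exposure; 96-well plates; endpoints linearly interpolated, else capped at highest concentration. The concentration for full growth arrest is given as TGI.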",
  "data": [
    {"smiles": "COC(=O)Nc1nc2ccc(S(=O)(=O)N3CCOCC3)cc2[nH]1", "values": [
      {"measurement": "TGI", "setting": "786-0 renal", "value": "> 100", "unit": "µM"},
      {"measurement": "TGI", "setting": "A498 renal", "value": "> 100", "unit": "µM"},
      {"measurement": "TGI", "setting": "A549 NSCLC", "value": "> 100", "unit": "µM"},
      {"measurement": "TGI", "setting": "ACHN renal", "value": "> 100", "unit": "µM"},
      {"measurement": "TGI", "setting": "BT-549 breast", "value": "> 100", "unit": "µM"},
      {"measurement": "TGI", "setting": "CAKI-1 renal", "value": "> 100", "unit": "µM"},
      {"measurement": "TGI", "setting": "CCRF-CEM leukemia", "value": "> 100", "unit": "µM"},
      {"measurement": "TGI", "setting": "COLO 205 colon", "value": "> 100", "unit": "µM"},
      {"measurement": "TGI", "setting": "DU-145 prostate", "value": "> 100", "unit": "µM"},
      {"measurement": "TGI", "setting": "EKVX NSCLC", "value": "> 100", "unit": "µM"},
      {"measurement": "TGI", "setting": "HCT-116 colon", "value": "> 100", "unit": "µM"},
      {"measurement": "TGI", "setting": "HCT-15 colon", "value": "> 100", "unit": "µM"},
      {"measurement": "TGI", "setting": "HL-60(TB) leukemia", "value": "> 100", "unit": "µM"},
      {"measurement": "TGI", "setting": "HOP-62 NSCLC", "value": "> 100", "unit": "µM"},
      {"measurement": "TGI", "setting": "HOP-92 NSCLC", "value": "> 100", "unit": "µM"},
      {"measurement": "TGI", "setting": "HS 578T breast", "value": "> 100", "unit": "µM"},
      {"measurement": "TGI", "setting": "HT29 colon", "value": "> 100", "unit": "µM"},
      {"measurement": "TGI", "setting": "IGROV1 ovarian", "value": "> 100", "unit": "µM"},
      {"measurement": "TGI", "setting": "K-562 leukemia", "value": "> 100", "unit": "µM"},
      {"measurement": "TGI", "setting": "KM12 colon", "value": "> 100", "unit": "µM"},
      {"measurement": "TGI", "setting": "LOX IMVI melanoma", "value": "> 100", "unit": "µM"},
      {"measurement": "TGI", "setting": "M14 melanoma", "value": "> 100", "unit": "µM"},
      {"measurement": "TGI", "setting": "MALME-3M melanoma", "value": "> 100", "unit": "µM"},
      {"measurement": "TGI", "setting": "MCF7 breast", "value": "> 100", "unit": "µM"},
      {"measurement": "TGI", "setting": "MDA-MB-231 breast", "value": "> 100", "unit": "µM"},
      {"measurement": "TGI", "setting": "MDA-MB-435", "value": 89.3, "unit": "µM"},
      {"measurement": "TGI", "setting": "MDA-N", "value": "> 100", "unit": "µM"},
      {"measurement": "TGI", "setting": "MOLT-4 leukemia", "value": "> 100", "unit": "µM"},
      {"measurement": "TGI", "setting": "NCI-H226 lung", "value": "> 100", "unit": "µM"},
      {"measurement": "TGI", "setting": "NCI-H23 lung", "value": "> 100", "unit": "µM"},
      {"measurement": "TGI", "setting": "NCI-H460 lung", "value": "> 100", "unit": "µM"},
      {"measurement": "TGI", "setting": "NCI-H522 lung", "value": "> 100", "unit": "µM"},
      {"measurement": "TGI", "setting": "NCI/ADR-RES ovarian", "value": "> 100", "unit": "µM"},
      {"measurement": "TGI", "setting": "OVCAR-3 ovarian", "value": "> 100", "unit": "µM"},
      {"measurement": "TGI", "setting": "OVCAR-4 ovarian", "value": "> 100", "unit": "µM"},
      {"measurement": "TGI", "setting": "OVCAR-5 ovarian", "value": "> 100", "unit": "µM"},
      {"measurement": "TGI", "setting": "OVCAR-8 ovarian", "value": "> 100", "unit": "µM"},
      {"measurement": "TGI", "setting": "PC-3 prostate", "value": "> 100", "unit": "µM"},
      {"measurement": "TGI", "setting": "RPMI-8226 leukemia", "value": "> 100", "unit": "µM"},
      {"measurement": "TGI", "setting": "RXF 393 renal", "value": "> 100", "unit": "µM"},
      {"measurement": "TGI", "setting": "SF-268 CNS", "value": "> 100", "unit": "µM"},
      {"measurement": "TGI", "setting": "SF-295 CNS", "value": "> 100", "unit": "µM"},
      {"measurement": "TGI", "setting": "SF-539 CNS", "value": 31, "unit": "µM"},
      {"measurement": "TGI", "setting": "SK-MEL-2 melanoma", "value": "> 100", "unit": "µM"},
      {"measurement": "TGI", "setting": "SK-MEL-28 melanoma", "value": "> 100", "unit": "µM"},
      {"measurement": "TGI", "setting": "SK-MEL-5 melanoma", "value": "> 100", "unit": "µM"},
      {"measurement": "TGI", "setting": "SK-OV-3 ovarian", "value": "> 100", "unit": "µM"},
      {"measurement": "TGI", "setting": "SN12C renal", "value": "> 100", "unit": "µM"},
      {"measurement": "TGI", "setting": "SNB-19 CNS", "value": "> 100", "unit": "µM"},
      {"measurement": "TGI", "setting": "SNB-75 CNS", "value": "> 100", "unit": "µM"},
      {"measurement": "TGI", "setting": "SR leukemia", "value": "> 100", "unit": "µM"},
      {"measurement": "TGI", "setting": "SW-620 colon", "value": "> 100", "unit": "µM"},
      {"measurement": "TGI", "setting": "T-47D breast", "value": "> 100", "unit": "µM"},
      {"measurement": "TGI", "setting": "TK-10 renal", "value": "> 100", "unit": "µM"},
      {"measurement": "TGI", "setting": "U251 CNS", "value": "> 100", "unit": "µM"},
      {"measurement": "TGI", "setting": "UACC-257 melanoma", "value": "> 100", "unit": "µM"},
      {"measurement": "TGI", "setting": "UACC-62 melanoma", "value": "> 100", "unit": "µM"},
      {"measurement": "TGI", "setting": "UO-31 renal", "value": "> 100", "unit": "µM"}
    ]}
  ]
}
